From paper PMC4823954, “From fighting depression to conquering tumors: a novel tricyclic thiazepine compound as a tubulin polymerization inhibitor” (Cell Death & Disease, 2016)

How the values were obtained:
Assay in all cases: KINOMEscan
Format in all cases: binding
Conditions in all cases: read-out: % Ctrl
ERK4 = biological target: T1, ERK4 (Homo sapiens, UniProt P31152)
T1 construct: purchased DiscoveRx KINOMEscan
How it was run: (§1)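 Competition binding panel of 442 non-mutant kinases: test compound at 5 and 10 μM competed with an active-site-directed ligand for 1 h with shaking. Bound kinase was eluted with 0.5 μM ligand and quantified by qPCR; %Ctrl = (compound − positive control)/(DMSO − positive control) × 100, lower meaning tighter binding.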

[1] = biological target: T2, JAK2(JH1domain-catalytic) (Homo sapiens, UniProt O60674)
T2 construct: JAK2(JH1domain-catalytic); purchased DiscoveRx KINOMEscan
How it was run: as §1

TIE1 = biological target: T3, TIE1 (Homo sapiens, UniProt P35590)
T3 construct: purchased DiscoveRx KINOMEscan
How it was run: as §1

EGFR(L858R,T790M) = biological target: T4, EGFR(L858R,T790M) (Homo sapiens, UniProt P00533, L858R/T790M)
T4 construct: purchased DiscoveRx KINOMEscan

VEGFR2 = biological target: T5, VEGFR2 (Homo sapiens, UniProt P35968)
T5 construct: purchased DiscoveRx KINOMEscan
How it was run: as §1

KIT(V559D,T670I) = biological target: T6, KIT(V559D,T670I) (Homo sapiens, UniProt P10721, T670I/V559D)
T6 construct: purchased DiscoveRx KINOMEscan
T6 sequence (P10721 26-976 V559D/T670I): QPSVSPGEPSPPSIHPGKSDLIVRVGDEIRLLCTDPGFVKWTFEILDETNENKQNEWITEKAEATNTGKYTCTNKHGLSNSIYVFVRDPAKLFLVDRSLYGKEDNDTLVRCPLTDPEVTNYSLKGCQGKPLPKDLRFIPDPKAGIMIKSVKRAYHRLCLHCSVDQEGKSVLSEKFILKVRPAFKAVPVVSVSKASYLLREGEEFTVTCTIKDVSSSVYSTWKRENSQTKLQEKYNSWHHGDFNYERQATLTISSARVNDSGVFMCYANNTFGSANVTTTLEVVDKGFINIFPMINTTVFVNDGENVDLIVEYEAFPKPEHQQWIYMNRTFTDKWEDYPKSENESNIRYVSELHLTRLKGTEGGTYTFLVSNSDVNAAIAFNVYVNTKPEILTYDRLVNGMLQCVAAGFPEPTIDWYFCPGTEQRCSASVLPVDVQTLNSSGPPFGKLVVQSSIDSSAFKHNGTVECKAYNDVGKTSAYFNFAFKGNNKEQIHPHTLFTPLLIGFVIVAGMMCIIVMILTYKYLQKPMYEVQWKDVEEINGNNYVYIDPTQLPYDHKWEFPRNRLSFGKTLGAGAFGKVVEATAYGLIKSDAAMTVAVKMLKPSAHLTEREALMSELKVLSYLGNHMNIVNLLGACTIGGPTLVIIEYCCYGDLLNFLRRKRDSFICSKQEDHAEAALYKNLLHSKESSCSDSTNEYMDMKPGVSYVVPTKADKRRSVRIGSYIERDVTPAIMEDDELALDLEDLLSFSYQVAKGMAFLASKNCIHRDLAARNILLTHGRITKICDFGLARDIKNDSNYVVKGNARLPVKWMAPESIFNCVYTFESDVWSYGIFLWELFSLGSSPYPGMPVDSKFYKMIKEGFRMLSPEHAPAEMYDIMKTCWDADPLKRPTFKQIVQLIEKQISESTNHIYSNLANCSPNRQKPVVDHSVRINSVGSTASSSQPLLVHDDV

ABL1-nonphosphorylated = biological target: T7, ABL1-nonphosphorylated (Homo sapiens, UniProt P00519)
T7 construct: purchased DiscoveRx KINOMEscan
How it was run: as §1

LATS1 = biological target: T8, LATS1 (Homo sapiens, UniProt O95835)
T8 construct: purchased DiscoveRx KINOMEscan
How it was run: as §1

ERK8 = biological target: T9, ERK8 (Homo sapiens, UniProt Q8TD08)
T9 construct: purchased DiscoveRx KINOMEscan
How it was run: as §1

PIK3CA(C420R) = biological target: T10, PIK3CA(C420R) (Homo sapiens, UniProt P42336, C420R)
T10 construct: purchased DiscoveRx KINOMEscan

DAPK2 = biological target: T11, DAPK2 (Homo sapiens, UniProt Q9UIK4)
T11 construct: purchased DiscoveRx KINOMEscan
T11 sequence (Q9UIK4 whole entry): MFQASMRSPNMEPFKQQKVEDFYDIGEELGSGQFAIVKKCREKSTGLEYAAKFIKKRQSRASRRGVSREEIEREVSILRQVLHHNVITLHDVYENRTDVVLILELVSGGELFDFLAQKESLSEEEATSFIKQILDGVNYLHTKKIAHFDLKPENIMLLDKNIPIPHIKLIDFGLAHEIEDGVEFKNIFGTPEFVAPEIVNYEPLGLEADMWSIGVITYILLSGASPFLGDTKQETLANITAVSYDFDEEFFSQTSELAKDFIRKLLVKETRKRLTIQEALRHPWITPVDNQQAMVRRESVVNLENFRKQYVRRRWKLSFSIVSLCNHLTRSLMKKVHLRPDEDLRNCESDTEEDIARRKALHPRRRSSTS
How it was run: as §1

TNK1 = biological target: T12, TNK1 (Homo sapiens, UniProt Q13470)
T12 construct: purchased DiscoveRx KINOMEscan
How it was run: as §1

PDGFRB = biological target: T13, PDGFRB (Homo sapiens, UniProt P09619)
T13 construct: purchased DiscoveRx KINOMEscan
T13 sequence (P09619 33-1106): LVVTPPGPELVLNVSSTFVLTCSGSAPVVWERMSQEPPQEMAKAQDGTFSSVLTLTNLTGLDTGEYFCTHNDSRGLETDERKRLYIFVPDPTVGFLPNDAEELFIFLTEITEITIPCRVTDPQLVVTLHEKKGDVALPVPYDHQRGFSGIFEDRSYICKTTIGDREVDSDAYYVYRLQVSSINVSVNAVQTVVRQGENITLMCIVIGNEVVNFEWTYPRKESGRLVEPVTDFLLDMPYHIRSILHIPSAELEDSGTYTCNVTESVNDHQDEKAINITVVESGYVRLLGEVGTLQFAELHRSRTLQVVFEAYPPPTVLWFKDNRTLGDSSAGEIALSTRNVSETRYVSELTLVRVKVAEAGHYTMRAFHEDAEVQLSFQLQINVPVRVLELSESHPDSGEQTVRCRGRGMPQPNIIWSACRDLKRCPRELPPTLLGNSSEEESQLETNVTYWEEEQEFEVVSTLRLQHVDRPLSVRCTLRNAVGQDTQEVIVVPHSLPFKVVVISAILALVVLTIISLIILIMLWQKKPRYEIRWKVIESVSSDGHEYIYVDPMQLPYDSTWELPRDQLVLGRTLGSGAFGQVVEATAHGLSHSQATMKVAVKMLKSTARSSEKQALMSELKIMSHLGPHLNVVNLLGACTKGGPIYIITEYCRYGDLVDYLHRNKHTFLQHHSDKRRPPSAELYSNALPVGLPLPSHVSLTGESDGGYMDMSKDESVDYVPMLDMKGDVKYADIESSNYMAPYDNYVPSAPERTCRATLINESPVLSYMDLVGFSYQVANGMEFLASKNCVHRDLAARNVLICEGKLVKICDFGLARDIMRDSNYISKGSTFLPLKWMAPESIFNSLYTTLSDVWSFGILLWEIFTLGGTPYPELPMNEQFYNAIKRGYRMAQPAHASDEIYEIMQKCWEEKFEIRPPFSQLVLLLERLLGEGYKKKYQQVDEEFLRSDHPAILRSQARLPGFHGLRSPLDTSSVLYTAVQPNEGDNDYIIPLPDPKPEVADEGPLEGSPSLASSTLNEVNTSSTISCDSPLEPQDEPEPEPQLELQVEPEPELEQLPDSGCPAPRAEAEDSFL
How it was run: as §1

LIMK2 = biological target: T14, LIMK2 (Homo sapiens, UniProt P53671)
T14 construct: purchased DiscoveRx KINOMEscan
How it was run: as §1

LATS2 = biological target: T15, LATS2 (Homo sapiens, UniProt Q9NRM7)
T15 construct: purchased DiscoveRx KINOMEscan
T15 sequence (Q9NRM7 whole entry): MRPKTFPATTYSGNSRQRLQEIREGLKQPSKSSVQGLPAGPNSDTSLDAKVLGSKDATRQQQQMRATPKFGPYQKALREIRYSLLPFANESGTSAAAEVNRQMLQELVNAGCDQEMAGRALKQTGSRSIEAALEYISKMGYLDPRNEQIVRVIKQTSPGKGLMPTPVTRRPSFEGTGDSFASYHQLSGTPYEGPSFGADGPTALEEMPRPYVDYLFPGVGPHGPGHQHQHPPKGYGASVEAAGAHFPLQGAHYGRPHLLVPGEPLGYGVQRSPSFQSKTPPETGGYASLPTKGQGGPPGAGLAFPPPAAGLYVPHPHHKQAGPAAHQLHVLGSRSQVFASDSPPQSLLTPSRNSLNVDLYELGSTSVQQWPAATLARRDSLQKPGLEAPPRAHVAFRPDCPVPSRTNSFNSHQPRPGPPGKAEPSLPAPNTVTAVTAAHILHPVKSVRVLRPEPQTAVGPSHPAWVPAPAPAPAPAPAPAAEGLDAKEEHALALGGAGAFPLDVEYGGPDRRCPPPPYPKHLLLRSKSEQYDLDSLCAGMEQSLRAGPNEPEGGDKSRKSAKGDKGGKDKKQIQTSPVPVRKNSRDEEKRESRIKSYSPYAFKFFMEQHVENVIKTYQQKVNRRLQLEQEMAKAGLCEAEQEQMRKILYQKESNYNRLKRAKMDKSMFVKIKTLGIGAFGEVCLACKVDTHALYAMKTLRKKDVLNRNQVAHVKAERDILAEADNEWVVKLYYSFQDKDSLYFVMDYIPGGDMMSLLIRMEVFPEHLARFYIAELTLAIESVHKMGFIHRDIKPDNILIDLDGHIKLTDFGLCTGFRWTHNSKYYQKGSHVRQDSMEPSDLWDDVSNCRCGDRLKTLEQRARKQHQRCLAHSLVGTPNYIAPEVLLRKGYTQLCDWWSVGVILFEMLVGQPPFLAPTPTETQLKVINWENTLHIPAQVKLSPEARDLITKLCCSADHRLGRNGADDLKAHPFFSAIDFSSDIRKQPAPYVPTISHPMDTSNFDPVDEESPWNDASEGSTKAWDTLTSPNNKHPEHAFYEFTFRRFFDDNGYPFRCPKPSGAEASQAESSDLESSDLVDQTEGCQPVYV
How it was run: as §1

PAK4 = biological target: T16, PAK4 (Homo sapiens, UniProt O96013)
T16 construct: purchased DiscoveRx KINOMEscan
How it was run: as §1

PFTK1 = biological target: T17, PFTK1 (Homo sapiens, UniProt O94921)
T17 construct: purchased DiscoveRx KINOMEscan
How it was run: as §1

EPHB2 = biological target: T18, EPHB2 (Homo sapiens, UniProt P29323)
T18 construct: purchased DiscoveRx KINOMEscan
How it was run: as §1

FLT3(N841I) = biological target: T19, FLT3(N841I) (Homo sapiens, UniProt P36888, N841I)
T19 construct: purchased DiscoveRx KINOMEscan

GRK7 = biological target: T20, GRK7 (Homo sapiens, UniProt Q8WTQ7)
T20 construct: purchased DiscoveRx KINOMEscan
How it was run: as §1

CHEK2 = biological target: T21, CHEK2 (Homo sapiens, UniProt O96017)
T21 construct: purchased DiscoveRx KINOMEscan
How it was run: as §1

SRPK3 = biological target: T22, SRPK3 (Homo sapiens, UniProt Q9UPE1)
T22 construct: purchased DiscoveRx KINOMEscan
T22 sequence (Q9UPE1 whole entry): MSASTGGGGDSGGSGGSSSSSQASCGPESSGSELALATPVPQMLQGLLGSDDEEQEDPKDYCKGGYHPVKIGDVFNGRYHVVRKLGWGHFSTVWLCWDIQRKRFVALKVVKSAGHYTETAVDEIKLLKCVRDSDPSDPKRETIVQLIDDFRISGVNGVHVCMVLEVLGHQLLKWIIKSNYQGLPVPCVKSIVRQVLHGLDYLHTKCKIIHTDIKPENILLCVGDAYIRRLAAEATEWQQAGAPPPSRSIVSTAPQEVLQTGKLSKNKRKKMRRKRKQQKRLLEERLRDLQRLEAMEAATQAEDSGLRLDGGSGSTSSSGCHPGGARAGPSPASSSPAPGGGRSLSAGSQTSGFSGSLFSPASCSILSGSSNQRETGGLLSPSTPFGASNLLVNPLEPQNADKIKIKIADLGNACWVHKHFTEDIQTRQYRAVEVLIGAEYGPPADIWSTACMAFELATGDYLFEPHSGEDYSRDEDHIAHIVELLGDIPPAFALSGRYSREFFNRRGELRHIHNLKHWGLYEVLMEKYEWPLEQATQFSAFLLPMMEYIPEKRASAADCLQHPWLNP
How it was run: as §1

ABL2 = biological target: T23, ABL2 (Homo sapiens, UniProt P42684)
T23 construct: purchased DiscoveRx KINOMEscan
How it was run: as §1

CSNK1D = biological target: T24, CSNK1D (Homo sapiens, UniProt P48730)
T24 construct: purchased DiscoveRx KINOMEscan
T24 sequence (P48730 whole entry): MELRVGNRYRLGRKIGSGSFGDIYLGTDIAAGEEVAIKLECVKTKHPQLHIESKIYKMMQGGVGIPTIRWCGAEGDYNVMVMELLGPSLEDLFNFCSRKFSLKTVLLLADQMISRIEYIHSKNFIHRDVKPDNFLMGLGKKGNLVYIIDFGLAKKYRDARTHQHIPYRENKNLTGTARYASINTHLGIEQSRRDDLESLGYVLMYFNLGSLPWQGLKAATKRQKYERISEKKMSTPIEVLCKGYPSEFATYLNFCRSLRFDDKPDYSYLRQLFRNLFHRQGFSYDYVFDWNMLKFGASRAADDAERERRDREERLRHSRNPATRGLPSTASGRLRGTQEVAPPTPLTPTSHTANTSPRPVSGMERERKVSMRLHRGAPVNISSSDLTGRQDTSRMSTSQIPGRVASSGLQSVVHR
How it was run: as §1

RET = biological target: T25, RET (Homo sapiens, UniProt P07949)
T25 construct: purchased DiscoveRx KINOMEscan
How it was run: as §1

NLK = biological target: T26, NLK (Homo sapiens, UniProt Q9UBE8)
T26 construct: purchased DiscoveRx KINOMEscan
How it was run: as §1

CSNK1G1 = biological target: T27, CSNK1G1 (Homo sapiens, UniProt Q9HCP0)
T27 construct: purchased DiscoveRx KINOMEscan
How it was run: as §1

ERBB4 = biological target: T28, ERBB4 (Homo sapiens, UniProt Q15303)
T28 construct: purchased DiscoveRx KINOMEscan
How it was run: as §1

YANK3 = biological target: T29, YANK3 (Homo sapiens, UniProt Q86UX6)
T29 construct: purchased DiscoveRx KINOMEscan
T29 sequence (Q86UX6 whole entry): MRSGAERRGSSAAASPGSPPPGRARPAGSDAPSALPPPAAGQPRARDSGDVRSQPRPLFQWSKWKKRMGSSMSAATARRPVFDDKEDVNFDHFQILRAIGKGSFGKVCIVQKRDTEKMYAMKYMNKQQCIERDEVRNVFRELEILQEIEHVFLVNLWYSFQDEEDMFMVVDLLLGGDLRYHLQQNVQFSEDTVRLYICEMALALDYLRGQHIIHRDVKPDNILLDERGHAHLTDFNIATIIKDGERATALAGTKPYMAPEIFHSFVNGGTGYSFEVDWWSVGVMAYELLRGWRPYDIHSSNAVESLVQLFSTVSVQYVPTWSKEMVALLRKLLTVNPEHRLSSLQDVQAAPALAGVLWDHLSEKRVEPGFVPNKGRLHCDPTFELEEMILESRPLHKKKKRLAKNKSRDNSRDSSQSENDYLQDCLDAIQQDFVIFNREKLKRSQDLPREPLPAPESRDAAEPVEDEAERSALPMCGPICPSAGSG
How it was run: as §1

MARK3 = biological target: T30, MARK3 (Homo sapiens, UniProt P27448)
T30 construct: purchased DiscoveRx KINOMEscan
How it was run: as §1

SMILES: Cc1ccc(C2=Nc3cccnc3S(=O)(=O)c3ccccc32)cc1 [TBPT, 6-(p-tolyl)benzo[f] pyrido[2,3-b][1,4] thiazepine 11,11-dioxide]
- remaining binding at 5 µM (ERK4; 5 μM): 89%
- remaining binding at 10 µM (ERK4; 10 μM): 100%
- remaining binding at 5 µM ([1]; 5 μM): 84%
- remaining binding at 10 µM ([1]; 10 μM): 98%
- remaining binding at 5 µM (TIE1; 5 μM): 100%
- remaining binding at 10 µM (TIE1; 10 μM): 98%
- remaining binding at 5 µM (EGFR(L858R,T790M); 5 μM): 78%
- remaining binding at 10 µM (EGFR(L858R,T790M); 10 μM): 88%
- remaining binding at 5 µM (VEGFR2; 5 μM): 95%
- remaining binding at 10 µM (VEGFR2; 10 μM): 84%
- remaining binding at 5 µM (KIT(V559D,T670I); 5 μM): 94%
- remaining binding at 10 µM (KIT(V559D,T670I); 10 μM): 100%
- remaining binding at 5 µM (ABL1-nonphosphorylated; 5 μM): 89%
- remaining binding at 10 µM (ABL1-nonphosphorylated; 10 μM): 100%
- remaining binding at 5 µM (LATS1; 5 μM): 100%
- remaining binding at 10 µM (LATS1; 10 μM): 100%
- remaining binding at 5 µM (ERK8; 5 μM): 94%
- remaining binding at 10 µM (ERK8; 10 μM): 100%
- remaining binding at 5 µM (PIK3CA(C420R); 5 μM): 100%
- remaining binding at 10 µM (PIK3CA(C420R); 10 μM): 100%
- remaining binding at 5 µM (DAPK2; 5 μM): 100%
- remaining binding at 10 µM (DAPK2; 10 μM): 99%
- remaining binding at 5 µM (TNK1; 5 μM): 100%
- remaining binding at 10 µM (TNK1; 10 μM): 97%
- remaining binding at 5 µM (PDGFRB; 5 μM): 68%
- remaining binding at 10 µM (PDGFRB; 10 μM): 100%
- remaining binding at 5 µM (LIMK2; 5 μM): 91%
- remaining binding at 10 µM (LIMK2; 10 μM): 100%
- remaining binding at 5 µM (LATS2; 5 μM): 100%
- remaining binding at 10 µM (LATS2; 10 μM): 100%
- remaining binding at 5 µM (PAK4; 5 μM): 100%
- remaining binding at 10 µM (PAK4; 10 μM): 100%
- remaining binding at 5 µM (PFTK1; 5 μM): 100%
- remaining binding at 10 µM (PFTK1; 10 μM): 100%
- remaining binding at 5 µM (EPHB2; 5 μM): 91%
- remaining binding at 10 µM (EPHB2; 10 μM): 100%
- remaining binding at 5 µM (FLT3(N841I); 5 μM): 85%
- remaining binding at 10 µM (FLT3(N841I); 10 μM): 100%
- remaining binding at 5 µM (GRK7; 5 μM): 100%
- remaining binding at 10 µM (GRK7; 10 μM): 100%
- remaining binding at 5 µM (CHEK2; 5 μM): 100%
- remaining binding at 10 µM (CHEK2; 10 μM): 100%
- remaining binding at 5 µM (SRPK3; 5 μM): 100%
- remaining binding at 10 µM (SRPK3; 10 μM): 89%
- remaining binding at 5 µM (ABL2; 5 μM): 80%
- remaining binding at 10 µM (ABL2; 10 μM): 97%
- remaining binding at 5 µM (CSNK1D; 5 μM): 98%
- remaining binding at 10 µM (CSNK1D; 10 μM): 90%
- remaining binding at 5 µM (RET; 5 μM): 100%
- remaining binding at 10 µM (RET; 10 μM): 87%
- remaining binding at 5 µM (NLK; 5 μM): 83%
- remaining binding at 10 µM (NLK; 10 μM): 89%
- remaining binding at 5 µM (CSNK1G1; 5 μM): 100%
- remaining binding at 10 µM (CSNK1G1; 10 μM): 89%
- remaining binding at 5 µM (ERBB4; 5 μM): 93%
- remaining binding at 10 µM (ERBB4; 10 μM): 99%
- remaining binding at 5 µM (YANK3; 5 μM): 88%
- remaining binding at 10 µM (YANK3; 10 μM): 96%
- remaining binding at 5 µM (MARK3; 5 μM): 96%
- remaining binding at 10 µM (MARK3; 10 μM): 87%
